Measured values reported in patent US5852190A, “Diazepinoindoles as phosphodiesterase IV inhibitors” (Institut de Recherche Jouveinal SA, priority 1994, dated 1998).

target: PDE IV; test: PDE IV inhibition (partially purified enzyme) compared with rolipram; assay type: biochemical; conditions: enzyme preparation obtained from guinea-pig trachea; same enzyme preparation for rolipram and product
Description: The capacity of the compounds of formula (I) of the invention to inhibit cyclic nucleotide phosphodiesterases is evaluated by measuring their IC50 (concentration of inhibitor required to inhibit enzymatic activity by 50%). In the case of PDEs IV, this value is compared with the IC50 of rolipram, a specific inhibitor of PDE IV, by the ratio of the IC50 of rolipram to the IC50 of the product to be tested, in relation to the same enzyme preparation.
The different classes of phosphodiesterases are obtained in partially purified form on a DEAE-cellulose column from guinea-pig trachea and dog aorta according to a method adapted from that of W. J. Thompson et al., 1979, Advances in Cyclic Nucleotide Research, Vol. 10: 69-92, ed. G. Brooker et al., Raven Press, New York, and of P. J. Silver et al., 1988, Eur. J. Pharmacol. 150: 85-94.
Subsequently, the measurement of the enzymatic activity of the different classes of PDE, and in particular of the PDEs IV, is carried out according to a method which is likewise adapted from that of W. J. Thompson, ibidem.
For the determination of the IC50 the enzymatic activity is measured in the presence of the inhibitor in a range of concentrations from 0.1 to 100 μM.
The following table illustrates the PDE IV-inhibitory activity in comparison with that of rolipram for an enzyme preparation obtained from guinea-pig trachea.

Q: Which “IC50 rolipram / IC50 example (PDE IV-inhibitory effect compared with rolipram)” value does the source give for `O=C(N[C@@H]1N=C(c2ccccc2)c2cccc3c2N(CC3)C1=O)c1cnc2ccccc2c1` [Example 2S, (3R)-Quinoline-3-carboxylic acid (4-oxo-1-phenyl-3,4,6,7-tetrahydro[1,4]diazepino[6,7,1-hi]indol-3-yl)amide] here?
A: 3.3

Q: For `O=C(NC1N=C(c2ccccc2)c2cccc3c2N(CC3)C1=O)c1cn2ccccc2n1` (racemic) [Example 1B, (3R,S)-Imidazo[1,2-a]pyridine-2-carboxylic acid N-(4-oxo-1-phenyl-3,4,6,7-tetrahydro1,4]diazepino-[6,7,1-hi]indol-3-yl)amide], which “IC50 rolipram / IC50 example (PDE IV-inhibitory effect compared with rolipram)” value is on record?
A: 3.7

Q: For `O=C(N[C@@H]1N=C(c2ccccc2)c2cccc3c2N(CC3)C1=O)c1ccccn1` [Example 2P, (3R)-Pyridine-2-carboxylic acid (4-oxo-1-phenyl-3,4,6,7-tetrahydro[1,4]diazepino[6,7,1-hi]indol-3-yl)amide], which “IC50 rolipram / IC50 example (PDE IV-inhibitory effect compared with rolipram)” value is on record?
A: 1.5

Q: For `COc1cc2c3c(c1)C(c1ccccc1)=N[C@@H](NC(=O)c1cccc(Cl)c1)C(=O)N3CC2` [Example 6A, (3R)-3-Chloro-N-(9-methoxy-4-oxo-1-phenyl-3,4,6,7-tetrahydro[1,4]diazepino[6,7,1-hi]indol-3-yl)benzamide], which “IC50 rolipram / IC50 example (PDE IV-inhibitory effect compared with rolipram)” value is on record?
A: 2.7

Q: Which “IC50 rolipram / IC50 example (PDE IV-inhibitory effect compared with rolipram)” value does the source give for `COc1cc(C(=O)N[C@@H]2N=C(c3ccccc3)c3cccc4c3N(CC4)C2=O)cc(OC)c1OC` [Example 2M, (3R)-3,4,5-Trimethoxy-N-(4-oxo-1-phenyl-3,4,6,7-tetrahydro[1,4]diazepino[6,7,1-hi]indol-3-yl)-benzamide] here?
A: 1.3

Q: Which “IC50 rolipram / IC50 example (PDE IV-inhibitory effect compared with rolipram)” value does the source give for `Cc1cc2nnc(C(=O)N[C@@H]3N=C(c4ccccc4)c4cccc5c4N(CC5)C3=O)c(C)n2n1` [Example 2Y, (3R)-4,7-Dimethyl-pyrazolo[5,1-c][1,2,4]triazine-3-carboxylic acid (4-oxo-1-phenyl-3,4,6,7-tetrahydro[1,4]diazepino[6,7,1-hi]indol-3-yl)amide] here?
A: 1.4

Q: With `COc1cc2c3c(c1)C(c1ccccc1)=N[C@@H](NC(=O)c1ccncc1)C(=O)N3CC2` [Example 6C, (3R)-N-(9-methoxy-4-oxo-1-phenyl-3,4,6,7-tetrahydro[1,4]diaze-ino[6,7,1-hi]indol-3-yl)isonicotinamide] as the compound, how does the “IC50 rolipram / IC50 example (PDE IV-inhibitory effect compared with rolipram)” value read?
A: 1.6

Q: For `O=C(N[C@@H]1N=C(c2ccccc2)c2cccc3c2N(CC3)C1=O)c1ccc2ncccc2c1` [Example 2T, (3R)-Quinoline-6-carboxylic acid (4-oxo-1-phenyl-3,4,6,7-tetrahydro[1,4]diaze-ino[6,7,1-hi]indol-3-yl)amide], which “IC50 rolipram / IC50 example (PDE IV-inhibitory effect compared with rolipram)” value is on record?
A: 2.0

Q: Which “IC50 rolipram / IC50 example (PDE IV-inhibitory effect compared with rolipram)” value does the source give for `COc1cc2c3c(c1)C(c1ccccc1)=N[C@@H](NC(=O)c1nnc4cc(C)nn4c1C)C(=O)N3CC2` [Example 6G, (3R)-4.7-Dimethylpyrazolo[5,1-c[]1,2,4]-triazine-3-carboxylic acid (9-methoxy-4-oxo-1-phenyl-3,4,6,7-tetrahydro[1,4]diazepino[6,7,1-hi]indol-3-yl)-amide] here?
A: 2.2

Q: With `COc1cc2c3c(c1)C(c1ccccc1)=N[C@@H](NC(=O)c1cc4ccccc4cn1)C(=O)N3CC2` [Example 6F, (3R)-Isoquinoline-3-carboxylic acid (9-methoxy-4-oxo-1-phenyl-3,4,6,7-tetrahydro[1,4]diazepino-[6,7,1-hi]indol-3-yl)amide] as the compound, how does the “IC50 rolipram / IC50 example (PDE IV-inhibitory effect compared with rolipram)” value read?
A: 1.2

Q: Which “IC50 rolipram / IC50 example (PDE IV-inhibitory effect compared with rolipram)” value does the source give for `O=C(N[C@@H]1N=C(c2ccccc2)c2cccc3c2N(CC3)C1=O)c1ccc(F)cc1` [Example 2C, (3R)-4-Fluoro-N-(4-oxo-1-phenyl-3,4,6,7-tetrahydro[1,4]diazepino[6,7,1-hi]indol-3-yl) -benzamide] here?
A: 1.2

Q: Which “IC50 rolipram / IC50 example (PDE IV-inhibitory effect compared with rolipram)” value does the source give for `COc1cc2c3c(c1)C(c1ccccc1)=N[C@@H](NC(=O)c1ccc(Cl)cc1)C(=O)N3CC2` [Example 6B, (3R)-4-Chloro-N-(9-methoxv-4-oxo-1-phenyl-3,4,6,7-tetrahydro[1,4]diazepino[6,7,1-hi]indol-3-yl)benzamide] here?
A: 1.6

Q: For `COc1ccc(Cl)cc1C(=O)N[C@@H]1N=C(c2ccccc2)c2cccc3c2N(CC3)C1=O` [Example 2N, (3R) -2-Methoxy-5-chloro-N-(4-oxo-1-phenyl-3,4,6,7-tetrahydro[1,4]diazepino[6,7,1-hi]indol-3-yl)-benzamide], which “IC50 rolipram / IC50 example (PDE IV-inhibitory effect compared with rolipram)” value is on record?
A: 2.5

Q: For `COc1cc2c3c(c1)C(c1ccccc1)=N[C@@H](NC(=O)c1ccc4ncccc4c1)C(=O)N3CC2` [Example 6E, (3R) -Quinoline-6-carboxylic acid (9-methoxy-4-oxo-1-phenyl-3,4,6,7-tetrahydro[1,4]diazepino[6,7,1-hi]indol-3-yl)amide], which “IC50 rolipram / IC50 example (PDE IV-inhibitory effect compared with rolipram)” value is on record?
A: 1.9

Q: For `COc1cc2c3c(c1)C(c1ccccc1)=NC(NC(=O)c1cc4ccccc4cn1)C(=O)N3CC2` [Example 5, (3R,S)-Isoquinoline-3-carboxylic acid (9-methoxy-4-oxo-1-phenyl-3,4,6,7-tetrahydro[1,4]-diazepino(6,7,1-hilindol-3yl)amide], which “IC50 rolipram / IC50 example (PDE IV-inhibitory effect compared with rolipram)” value is on record?
A: 1.2

Q: For `CC(=O)Nc1ccc(C(=O)N[C@@H]2N=C(c3ccccc3)c3cccc4c3N(CC4)C2=O)cc1` [Example 2O, (3R)-4-Acetamido-N-(4-oxo-1-phenyl-3,4,6,7-tetrahydro[1,4]diazepino[6,7,1-hi]indol-3-yl)-benzamide], which “IC50 rolipram / IC50 example (PDE IV-inhibitory effect compared with rolipram)” value is on record?
A: 1.9

Q: Which “IC50 rolipram / IC50 example (PDE IV-inhibitory effect compared with rolipram)” value does the source give for `O=C(N[C@@H]1N=C(c2ccccc2)c2cccc3c2N(CC3)C1=O)c1cccc(F)c1` [Example 2B, (3R)-3-Fluoro-N-(4-oxo-1-phenyl-3,4,6,7-tetrahydro[1,4]diazepino[6,7,1-hi]indol-3-yl)-benzamide] here?
A: 1.2

Q: For `COc1cc2c3c(c1)C(c1ccccc1)=N[C@@H](NC(=O)c1cnc4ccccc4c1)C(=O)N3CC2` [Example 6D, (3R)-Quinoline-3-carboxylic acid (9-methoxy-4-oxo-1-phenyl-3,4,6,7-tetrahydro[1,4]diazepino[6,7,1-hi]indol-3-yl)amide], which “IC50 rolipram / IC50 example (PDE IV-inhibitory effect compared with rolipram)” value is on record?
A: 1.9

test system: not listed separately; test: subacute oral toxicity in the rat; assay type: in vivo; conditions: 100 mg/kg/day for two weeks, 1% aqueous suspension in methyl cellulose
Excerpt: The subacute oral toxicity of Example 2V was studied in the rat.

Q: For `O=C(N[C@@H]1N=C(c2ccccc2)c2cccc3c2N(CC3)C1=O)c1cc2ccccc2cn1` [Example 2V, (3R)-Isocuinoline-3-carboxylic acid (4-oxo-1-phenyl-3,4,6,7-tetrahdro[1,4]diazerino[6,7,1-hi]indol-3-yl)amide], which subacute oral toxicity is on record?
A: showed no activity which could be linked with a toxic effect

test system: inflammatory cells; test: not given; conditions: in vitro, rodents; cited from earlier work

Q: For `COc1ccc(C2CNC(=O)C2)cc1OC1CCCC1` (stereo not drawn) [Rolipram], which “inhibition of the activity of inflammatory cells” value is on record?
A: inhibits the activity of inflammatory cells in rodents

test system: not given; test: not given; conditions: in use; cited from earlier work

Q: With `COc1ccc(C2CNC(=O)C2)cc1OC1CCCC1` (stereo not drawn) [Rolipram] as the compound, how does the undesirable effects read?
A: nausea and vomiting

Q: With `Cn1c(=O)c2[nH]cnc2n(C)c1=O` [Theophylline] as the compound, how does the undesirable effects read?
A: nausea and headaches

same assay, conditions: methylxanthines such as theophylline; cited from earlier work

Q: Which therapeutic index does the source give for `Cn1c(=O)c2[nH]cnc2n(C)c1=O` [Theophylline] here?
A: low therapeutic index

test system: phosphodiesterase; test: not given; conditions: nonspecific inhibitor; cited from earlier work

Q: With `Cn1c(=O)c2[nH]cnc2n(C)c1=O` [Theophylline] as the compound, how does the “inhibition of several classes of phosphodiesterases” value read?
A: inhibit several classes of enzymes
